{"source": "PubChem BioAssay AID2060619", "about": "(Molecular Pharmacology Branch, DTP, NCI, 2025);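 also: spheroids exposed to agents for seven days before readout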;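 as to viability, T/C: percent of DMSO vehicle control wells so 100% = untreated growth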", "system": "323965-272-R-J2-PDC complex spheroid viability", "experiment": "Anticancer human tumor 323965-272-R-J2-PDC patient-derived pancreatic carcinoma cell line growth inhibition [CLK]", "conditions": "for IC50: curve of first compound; for viability, T/C: stronger effect = lower value", "procedure,_shortened": "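Patient-derived tumor cells grown as complex spheroids with HUVEC endothelial cells and mesenchymal stem cells, treated with drug combinations. Concentrations descend in half-log steps from near clinical Cmax, or from 10 microM if Cmax unknown.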"}
{"smiles": "Nc1ccn(C2OC(CO)C(O)C2(F)F)c(=O)n1", "note": "(configuration not stated) + CNC(=O)c1ccc(Nc2nc(OC3CCCC3)c3c(-c4ccc5nc(C)oc5c4)c[nH]c3n2)c(OC)c1", "values": [{"measurement": "IC50", "setting": "second compound 0.0316 µM", "result": "< 0.0316", "unit": "µM"}, {"measurement": "IC50", "setting": "second compound 0.1 µM", "result": "< 0.0316", "unit": "µM"}, {"measurement": "IC50", "setting": "second compound 0.316 µM", "result": "< 0.0316", "unit": "µM"}, {"measurement": "IC50", "setting": "second compound 1 µM", "result": "< 0.0316", "unit": "µM"}, {"measurement": "IC50", "setting": "second compound 3.16 µM", "result": "< 0.0316", "unit": "µM"}, {"measurement": "IC50", "setting": "second compound 10 µM", "result": "< 0.0316", "unit": "µM"}, {"measurement": "viability, T/C", "setting": "second compound 0.0316 µM, first compound 0.0316 µM", "result": 30.7, "unit": "%"}, {"measurement": "viability, T/C", "setting": "second compound 0.0316 µM, first compound 0.1 µM", "result": 33, "unit": "%"}, {"measurement": "viability, T/C", "setting": "second compound 0.0316 µM, first compound 0.316 µM", "result": 30.3, "unit": "%"}, {"measurement": "viability, T/C", "setting": "second compound 0.0316 µM, first compound 1 µM", "result": 27.9, "unit": "%"}, {"measurement": "viability, T/C", "setting": "second compound 0.0316 µM, first compound 3.16 µM", "result": 27.9, "unit": "%"}, {"measurement": "viability, T/C", "setting": "second compound 0.0316 µM, first compound 10 µM", "result": 30.4, "unit": "%"}, {"measurement": "viability, T/C", "setting": "second compound 0.1 µM, first compound 0.0316 µM", "result": 37.4, "unit": "%"}, {"measurement": "viability, T/C", "setting": "second compound 0.1 µM, first compound 0.1 µM", "result": 33.3, "unit": "%"}, {"measurement": "viability, T/C", "setting": "second compound 0.1 µM, first compound 0.316 µM", "result": 26, "unit": "%"}, {"measurement": "viability, T/C", "setting": "second compound 0.1 µM, first compound 1 µM", "result": 32.3, "unit": "%"}, {"measurement": "viability, T/C", "setting": "second compound 0.1 µM, first compound 3.16 µM", "result": 30.2, "unit": "%"}, {"measurement": "viability, T/C", "setting": "second compound 0.1 µM, first compound 10 µM", "result": 32.1, "unit": "%"}, {"measurement": "viability, T/C", "setting": "second compound 0.316 µM, first compound 0.0316 µM", "result": 32.9, "unit": "%"}, {"measurement": "viability, T/C", "setting": "second compound 0.316 µM, first compound 0.1 µM", "result": 27.8, "unit": "%"}, {"measurement": "viability, T/C", "setting": "second compound 0.316 µM, first compound 0.316 µM", "result": 25.4, "unit": "%"}, {"measurement": "viability, T/C", "setting": "second compound 0.316 µM, first compound 1 µM", "result": 27.8, "unit": "%"}, {"measurement": "viability, T/C", "setting": "second compound 0.316 µM, first compound 3.16 µM", "result": 28.1, "unit": "%"}, {"measurement": "viability, T/C", "setting": "second compound 0.316 µM, first compound 10 µM", "result": 25.2, "unit": "%"}, {"measurement": "viability, T/C", "setting": "second compound 1 µM, first compound 0.0316 µM", "result": 24.2, "unit": "%"}, {"measurement": "viability, T/C", "setting": "second compound 1 µM, first compound 0.1 µM", "result": 21.4, "unit": "%"}, {"measurement": "viability, T/C", "setting": "second compound 1 µM, first compound 0.316 µM", "result": 21.4, "unit": "%"}, {"measurement": "viability, T/C", "setting": "second compound 1 µM, first compound 1 µM", "result": 18.9, "unit": "%"}, {"measurement": "viability, T/C", "setting": "second compound 1 µM, first compound 3.16 µM", "result": 17.8, "unit": "%"}, {"measurement": "viability, T/C", "setting": "second compound 1 µM, first compound 10 µM", "result": 18.9, "unit": "%"}, {"measurement": "viability, T/C", "setting": "second compound 3.16 µM, first compound 0.0316 µM", "result": 25.6, "unit": "%"}, {"measurement": "viability, T/C", "setting": "second compound 3.16 µM, first compound 0.1 µM", "result": 22.8, "unit": "%"}, {"measurement": "viability, T/C", "setting": "second compound 3.16 µM, first compound 0.316 µM", "result": 21.6, "unit": "%"}, {"measurement": "viability, T/C", "setting": "second compound 3.16 µM, first compound 1 µM", "result": 21.2, "unit": "%"}, {"measurement": "viability, T/C", "setting": "second compound 3.16 µM, first compound 3.16 µM", "result": 19.7, "unit": "%"}, {"measurement": "viability, T/C", "setting": "second compound 3.16 µM, first compound 10 µM", "result": 18.2, "unit": "%"}, {"measurement": "viability, T/C", "setting": "second compound 10 µM, first compound 0.0316 µM", "result": 26.7, "unit": "%"}, {"measurement": "viability, T/C", "setting": "second compound 10 µM, first compound 0.1 µM", "result": 23, "unit": "%"}, {"measurement": "viability, T/C", "setting": "second compound 10 µM, first compound 0.316 µM", "result": 24.2, "unit": "%"}, {"measurement": "viability, T/C", "setting": "second compound 10 µM, first compound 1 µM", "result": 21.1, "unit": "%"}, {"measurement": "viability, T/C", "setting": "second compound 10 µM, first compound 3.16 µM", "result": 22, "unit": "%"}, {"measurement": "viability, T/C", "setting": "second compound 10 µM, first compound 10 µM", "result": 15.8, "unit": "%"}]}
